Here are results for one compound from patent US12653788B2, “Pharmaceutical composition of a pyrazole compound dispersed in a polymer matrix” (Intervet Inc., priority 2019, dated 2026).

The structures appear in SMILES notation.

Data set [1] can be described thus: Oral bioavailability of the compound in dogs. Particulars: dog, in vivo. The protocol: (§1) The poor water solubility results in poor oral bioavailability in dogs, often below 50%. The log P of the compound of Formula (I) is calculated to be 1.25 (Chem Draw and Insight for Excel). To increase solubilization and promote bioavailability, Applicants have dosed the compound in the amorphous state as part of an amorphous solid dispersion (ASD). […] Therefore, the ASD was manufactured by co-precipitation or cPAD (co-precipitated amorphous dispersion). In this process, the compound and a polymer were dissolved into a solvent. The compound-polymer solution was then rapidly precipitated in an anti-solvent under high shear in a rotor-stator homogenizer. and the compound-polymer amorphous solid dispersion was formed.

Data set [2] in a line: Solubility of the compound (water, volatile solvents). The data set is classed as physicochemical. Here is the method: as §1
Data set [3] in a line: In vitro anti-nucleating polymer screen in simulated gastric fluid (PION UV probe). Format: physicochemical. Particulars: only simulated gastric fluid (SGF) pH 1.8, no polymer; 2 hours, 272 nm. The protocol:
FIG. 3—Several anti-nucleating polymers were assessed for ability to maintain the compound of Formula (I) in an in vitro screen.
In an attempt to improve the bioavailability of the compound of Formula (I) in animals administered in the fed state, anti-nucleating agents were added to the pharmaceutical composition to decrease the potential for crystallization of the compound. Several anti-nucleation polymers were assessed for ability to maintain the compound of Formula (I) in an in vitro screen. 0.5% solution of each anti-nucleating polymer was prepared in simulated gastric fluid, pH 1.8. 75 uL of 10 mg/mL API in DMSO was added into 5 mL of the 0.5% polymer solution and monitored by PION UV probe for 2 hours at 272 nm. […] When the other polymers were used, the concentration of the compound of Formula (I) was initially maintained but finally was reduced before the 2 hour test was completed.

Data set [4] relates to cIL-31 induced pruritus. Particulars: with respect to placebo, similar magnitude to oclacitinib (Apoquel); cited from earlier work.

Compound `COc1cc(Nc2nn([C@H]3COCC[C@@H]3C#N)cc2C(N)=O)cc(F)n1` [compound of Formula (I), 1-[(3R,4S)-4-cyanotetrahydropyran-3-yl]-3-[(2-fluoro-6-methoxy-4-pyridyl)amino]pyrazole-4-carboxamide] returned a bioavailability in data set [1] of less than 50%. Besides, the “solubility in volatile solvents” value in data set [2] (isopropanol, acetone, dichloromethane) is recorded as “low solubility”. Also, the water solubility result in data set [2] (water) is reported as “poorly water soluble”. Moreover, the “concentration of the compound of Formula (I) in control” value in data set [3] was “dropped almost immediately”. For the same compound, the suppression of pruritus result in data set [4] is on record as “significantly suppressed pruritus”.
